This data set is described as follows: Solubility determinations of crystalline forms of racemic eperisone in water. Format: physicochemical. The note with it: for Solubility: HPLC-grade water, slurry on rotating wheel 46.5 hours at ambient temperature (about 19° C.), filtrate dried and weighed; for Relative solubility among the forms: ranking of the Table 10 solubilities in water. On the procedure: The solubilities of the crystalline forms of racemic eperisone were determined as follows. Each experiment was conducted in a one-dram vial by adding weighed amounts of solid salt in portions to a weighed amount of HPLC-grade water until a slurry was obtained. In the case of the mesylate salt, a slurry was not obtained; solid addition was stopped while a solution was still present. Each vial was capped and placed on a rotating wheel for 46.5 hours at ambient temperature. Each vial was removed from the wheel. The ambient temperature at the time of removal was about 19° C. The contents of each vial were vacuum filtered through Whatman Grade 1 filter paper. Solids adhering to the inside of the vial were not recovered. Each filtrate was weighed, dried under diaphragm pump pressure over phosphorus pentoxide, and the resulting solid residue was weighed. Each filter cake was allowed to dry in the air overnight and was weighed.

Counter-ions that a name gives are not always drawn.

With `CCc1ccc(C(=O)C(C)CN2CCCCC2)cc1` (racemic) [Fumarate, (2RS)-1-(4-ethylphenyl)-2-methyl-3-piperidin-1-yl-propan-1-one], the Solubility was determined as 16.8 mg/mL. The “Relative solubility among the forms” value (listed as racemic eperisone fumarate) is on record as “least soluble”.
`CCc1ccc(C(=O)C(C)CN2CCCCC2)cc1` (racemic) [Hydrochloride, (2RS)-1-(4-ethylphenyl)-2-methyl-3-piperidin-1-yl-propan-1-one, reference compound] returned a Solubility of 210.7 mg/mL.
Same read-out and setting: to `CCc1ccc(C(=O)C(C)CN2CCCCC2)cc1` (racemic) [Maleate, (2RS)-1-(4-ethylphenyl)-2-methyl-3-piperidin-1-yl-propan-1-one] belongs 20.7 mg/mL.
Take `CCc1ccc(C(=O)C(C)CN2CCCCC2)cc1` (racemic) [Mesylate, (2RS)-1-(4-ethylphenyl)-2-methyl-3-piperidin-1-yl-propan-1-one]: the Solubility is listed as above 392.2 mg/mL. The “Relative solubility among the forms” value (listed as racemic eperisone mesylate) is listed as “most soluble”.
Molecule `CCc1ccc(C(=O)C(C)CN2CCCCC2)cc1` (racemic) [Succinate, (2RS)-1-(4-ethylphenyl)-2-methyl-3-piperidin-1-yl-propan-1-one] gave a Solubility of 114.7 mg/mL.

For the origin of these results see patent US20120196895A1, “NOVEL FORMS OF EPERISONE” (Bionevia Pharmaceuticals, Inc., priority 2009, published 2012).
